Laboratory results reported in US10307398B2, “Resuscitation composition and methods of making and using” (Regents of the University of Minnesota, priority 2016, dated 2019).
In brackets after ≈: the same amount, converted by molar mass. Several values for one entry are separate records, joined by “and”; a condition that tells them apart may be missing. Equal entries are not always repeated. Blank lines part the entries; values can stand above or below the molecule they belong to.

Tests used:
[1] = water vapor sorption of BHB; assay type: physicochemical; conditions: 25° C.
Experimental: Water vapor sorption. About 5 mg of sample was placed in the quartz sample pan of an automated vapor sorption balance (DVS-1000, Surface Measurement Systems, London, UK), maintained at 25° C. It was dried under dry nitrogen purge (flow rate 200 mL/min) to constant weight. Equilibrium was assumed to have been achieved if the mass change was <0.001% over 30 min. […] Equilibrium was assumed to have been achieved if the mass change was <0.005% over 30 min. The microbalance was calibrated periodically using a 100 mg standard weight.
In order to gain a deeper understanding into the water-BHB interaction, the ‘as is’ BHB was heated in the TGA up to 120° C., cooled to RT and transferred to the sample chamber of the water sorption analyzer. The other relevant details are provided in the Experimental section. There was no water sorption up to 15% RH and then the sample gained ˜3% water at 20% RH (FIG. 10). This is in excellent agreement with the water content in ‘as is’ BHB. […] However, under the experimental conditions in the water sorption analyzer (maximum dwell time of 360 minutes at any RH), equilibrium was not attained. Therefore, when the RH was further increased to 55%, a pronounced weight increase again was observed. […] There were two RH ranges, (0-20% and 35-55%) where hysteresis was observed.

[2] = cited from earlier work
[3] = solubility of melatonin in excipient solutions; assay type: physicochemical; conditions: aqueous with cosolvent or surfactant or cyclodextrin, thermodynamic from solid
Experimental: A saturated melatonin solution was prepared containing the indicated excipient concentrations and incubated end over end at room temperature for 72 hours. After 72 hours, solutions were filtered through a […] filter and diluted 1:10. Absorption was measured spectrophotometrically at 287 nm (excipient solutions alone were used as blanks).

physchem = assay: physchem
Experimental: Assuming formation of 1:1 complex between drug and ligand, the complexation efficiency (CE) can be calculated from the slope of the phase-solubility diagram:
[formula] where So is the intrinsic substrate solubility and k1:1 stability constant of the complex.
Solubility Studies. […] An excess amount of MLT was added either to water or PVP solution (concentration ranging from 0.1 to 20% w/v) in polypropylene tubes (protected from light) and incubated with end-over-end rotation at 25° C. until equilibrium was achieved (72 hours). An aliquot was filtered (0.45 μm membrane) and the absorption measured at 270 nm (Epoch microplate spectrophotometer, BioTek, Winooski, Vt.).
PVP is known to form water soluble or insoluble complexes with various drugs with either enhancement or reduction in solubility.

water gain (water sorption) ([1]; at 20% RH, BHB previously heated to 120° C.): ~3%
increase in weight (water sorption, deliquescence) ([1]; at 50% RH): ~40%
SMILES: C[C@@H](O)CC(=O)O [BHB, D-β-hydroxybutyrate]

SMILES: CC(O)COC[C@H]1O[C@@H]2O[C@H]3[C@H](O)[C@@H](O)[C@@H](O[C@H]4[C@H](O)[C@@H](O)[C@@H](O[C@H]5[C@H](O)[C@@H](O)[C@@H](O[C@H]6[C@H](O)[C@@H](O)[C@@H](O[C@H]7[C@H](O)[C@@H](O)[C@@H](O[C@H]8[C@H](O)[C@@H](O)[C@@H](O[C@H]1[C@H](O)[C@H]2O)O[C@@H]8COCC(C)O)O[C@@H]7COCC(C)O)O[C@@H]6COCC(C)O)O[C@@H]5COCC(C)O)O[C@@H]4COCC(C)O)O[C@@H]3COCC(C)O (stereo partly drawn) [HPbCD, Hydroxypropyl-beta-cyclodextrin]
solubility [2]: exceeds 600 mg/ml

solubility at 72 h ([3]; 10% HPbCD/5% PEG400/5% PVP K12 solution, in 10% HPbCD/5% PEG400/5% PVP K12, room temperature): > 43000 µM and > 10000 µg/mL
solubility at 72 h ([3]; 20% PVP solution, in 20% PVP, room temperature): > 43000 µM and > 10000 µg/mL
molar ratio of total drug to free drug (physchem): 1.17
slope of the phase solubility diagram (physchem): 0.030
solubility thermodynamic at 72 h (physchem; 25 °C, water, thermodynamic from solid): ~8 mM (≈ 1860 µg/mL)
SMILES: COc1ccc2[nH]cc(CCNC(C)=O)c2c1 [melatonin, 5-methoxy-N-acetyltryptamine]
